In article PMC11999338, “Factor XI localization in human deep venous thrombus and function of activated factor XI on venous thrombus formation and hemostasis” (Research and Practice in Thrombosis and Haemostasis, 2025):
Entries after “also recorded” stand apart in the source; their conditions may differ.

Columns and labels:
[1] = test system: PT and aPTT; assay: PT and aPTT after oral administration in rabbit stasis model; format: in vivo; details: rabbits, stasis model, 1, 3, and 7 hours; ONO-1600586 50 mg/mL, rivaroxaban 15 mg/mL (so in the source)
Experimental: The protocols of venous thrombosis by stasis were as follows (Supplementary Figure 4). First, fasting rabbits were orally administered a solvent as a control (n = 8), a FXIa inhibitor (ONO-1600586, 50 mg/kg, n = 8), or a FXa inhibitor (rivaroxaban, 15 mg/kg, n = 8) using a Nelaton catheter of 5 mm diameter (IZUMO Health Co, Ltd) 60 minutes before thrombus formation. The process of thrombus formation was performed under general anesthesia through the subcutaneous injection of a mixture of medetomidine hydrochloride (0.08 mg/kg body weight), butorphanol tartrate (0.2 mg/kg), and midazolam (0.4 mg/kg).
Blood samples were collected from the central ear arteries of the rabbits before and 1, 3, and 7 hours after administering the solvent, ONO-1600586, and rivaroxaban in 3.8% sodium citrate (9:1 v/v) using 21-gauge needles. Plasma samples were centrifuged at 1500 × g for 15 minutes at room temperature. PT and aPTT were measured using a coagulation timer (KC-1 Delta, Tcoag Ireland Ltd) and reagents (aPTT: ACTIN, Siemens; PT: THROMBOCHECK PT+, Sysmex). Data are expressed as a ratio of PT and aPTT to those before administration.

[2] = test system: thrombi on the collagen surface; assay: Ex vivo rabbit blood perfusion in flow chamber on collagen surface (70/s); format: cell-based; details: rabbit blood 75 minutes after oral ONO-1600586 50 mg/kg or rivaroxaban 15 mg/kg, shear rate 70/s
Experimental: Blood from rabbits 75 minutes postadministration of a solvent as a control (n = 5), a FXIa inhibitor (ONO-1600586, 50 mg/kg, n = 5), or a FXa inhibitor (rivaroxaban, 15 mg/kg, n = 5) was collected using 21-gauge needles into plastic syringes containing corn trypsin inhibitor (Molecular Innovations; final concentration 20 μg/mL) and a specific FXa inhibitor, Arixtra (Organon Sanofi-Synthelabo, final concentration 6 μg/mL). Anticoagulated whole blood was stored at room temperature and used for perfusion studies within 1 hour of collection. Next, mepacrine (quinacrine dihydrochloride, Sigma-Aldrich, final concentration 5 μM) was added to the blood before perfusion for platelet labeling, which enables the visualization of platelet-surface interaction through epifluorescence videomicroscopy. Collagen from the horse tendon (Collagen Reagent HORM, Takeda Pharmaceutical, 20 μg/mL) was immobilized on glass coverslips (24 × 50 mm) in parallel-plate flow chambers, as previously described. Blood samples were perfused through the chamber using a syringe pump (KDS100, KD Scientific Inc) at a constant flow rate (15 mL/h) to achieve wall shear rates of 70/s. Platelets interacting with the immobilized collagen were visualized using an inverted stage epifluorescence microscope (IX71, OLYMPUS). Images were captured at 3, 6, and 9 minutes after perfusion with a photosensitive color CCD camera (DP70, Olympus), and surface covering areas were semiquantified using a morphometric analysis system (WinROOF, Mitani).
After perfusion, coverslips were immediately fixed in 95% alcohol for 1 hour at room temperature, stained using antibodies for fibrin (Millipore), and faintly counterstained with Meyer’s hematoxylin. […] Finally, the number of attached cells with multilobulated nuclei was counted as the neutrophil number in 5 fields under a 20× objective lens and expressed as the number of neutrophils per mm^2.

[3] = test system: PT and aPTT; assay: Coagulation parameters (PT, aPTT) after oral administration in rabbits, denudation/stenosis model; format: in vivo, rabbit
Experimental: The protocols of the venous thrombosis and skin bleeding models in rabbits were as follows (Supplementary Figure 2). First, fasting rabbits were orally administered a solvent as a control (n = 10), a FXIa inhibitor (ONO-1600586, 5 mg/kg, n = 10; 15 mg/kg, n = 10; and 50 mg/kg, n = 11), or a FXa inhibitor (rivaroxaban, 1.5 mg/kg, 5 mg/kg, and 15 mg/kg, n = 10 each) using a Nelaton catheter of 5 mm diameter (IZUMO Health Co, Ltd) 90 minutes before thrombus formation. The thrombus formation and bleeding were performed under general anesthesia through the subcutaneous injection of a mixture of medetomidine hydrochloride (0.08 mg/kg body weight), butorphanol tartrate (0.2 mg/kg), and midazolam (0.4 mg/kg). Additional anesthesia with one-third amount of the above-mentioned mixture of drugs was administered 80 minutes after the first injection, and all surgical operations proceeded under aseptic conditions.
Blood samples were collected from the central ear arteries of rabbits before and 75 minutes and 4.5 hours after the administration of the solvent, ONO-1600586, and rivaroxaban in 3.8% sodium citrate (9:1 v/v) using 21-gauge needles. Plasma samples were centrifuged at 1500 × g for 15 minutes at room temperature. Prothrombin time (PT) and activated partial thromboplastin time (aPTT) were measured using a coagulation timer (KC-1 Delta, Tcoag Ireland Ltd) and reagents (aPTT: ACTIN, Siemens; PT: THROMBOCHECK PT+, Sysmex).

[4] = 75 minutes after oral administration, ONO-1600586 5, 15, 50 mg/kg, rivaroxaban 1.5, 5, 15 mg/kg
[5] = 4.5 hours after oral administration, ONO-1600586 50 mg/mL, rivaroxaban 15 mg/mL (so in the source)

## O=C(NC[C@H]1CN(c2ccc(N3CCOCC3=O)cc2)C(=O)O1)c1ccc(Cl)s1 [rivaroxaban]
[1]
  PT after oral administration: prolonged
  aPTT after oral administration: prolonged
[2]
  fibrin formation (fibrin-immunopositive area) in the flow chamber: markedly decreased; also recorded: Absence or little fibrin formation
  neutrophil attachment on the thrombus: did not affect
[2]; 3, 6, 9 minutes
  surface covering areas: did not differ
[3]; [4]
  PT after oral administration: dose-dependently prolonged
  aPTT after oral administration: dose-dependently prolonged
[3]; [5]
  PT after oral administration: prolonged
  aPTT after oral administration: prolonged
